Measurements: paper PMC7358525, “Characterization of PF-6142, a Novel, Non-Catecholamine Dopamine Receptor D1 Agonist, in Murine and Nonhuman Primate Models of Dopaminergic Activation” (Frontiers in Pharmacology, 2020)

Experiments:
Format in all cases: in vivo
mouse locomotor activity = test: Mouse locomotor activity (LMA)
Protocol: Locomotor activity data were measured by an automated infrared photo-beam system in sound attenuating chambers controlled by Versamax® software, provided by Accuscan Instruments Inc. (Columbus, Ohio), which quantified beam breaks similar to the methods used previously ([Xu et al., 2000]). To test D1 receptor selectivity in a pharmacologic model, C57BL/6J mice were habituated to the apparatus for 90 min, followed by pretreatment with vehicle or SCH-23390 (0.01, 0.032, 0.1 0.32, s.c.) and returned to the apparatus for 30 min. […] Data were compared against the vehicle group using a repeated measures one-way ANOVA with a Dunnett’s post-test. To test D1 receptor selectivity in a genetic model, DRD1a WT and knockout mice (D1 KO) were habituated to the apparatus for 90 min, pretreated with vehicle or SCH-23390 (0.032 mg/kg, s.c.) and returned to the apparatus for 30 min. […] Data were compared within genotype using a two-way ANOVA with a Dunnett’s post-hoc test versus vehicle treated group.

[1] = tested on: prepulse inhibition of startle; test: Mouse prepulse inhibition (PPI) and acoustic startle
Protocol: Drug and behaviorally naïve adult male C57BL/6J mice (9–11 weeks of age; n=8 per dose group) were used for PPI experiments. Subjects were tested individually in SR-Lab acoustic startle chambers (San Diego Instruments, San Diego CA, USA) equipped with a restrainer mounted atop a piezoelectric accelerometer which measured transduced movement in response to the presentation of audio stimuli presented through a speaker mounted 20 cm above the animal. Subjects were acclimated to an anteroom adjacent to the testing room at minimum 60 min prior to testing. Test sessions began with a 5 min acclimation period to background noise (65 dB) followed by presentation of six randomized repetitions of the 120 dB startle stimulus (40 ms duration) presented alone or paired in combination with a pre-pulse stimulus of 68, 72, or 74 db (20 msec in duration) presented 80 msec prior to the 120 dB startle stimulus, which was equivalent to +3, +7, and +9 db over background noise, respectively. Data were also recorded for no stimulus values to evaluate background level of response. The inter-trial interval between stimulus presentations was randomized and ranged from 10 to 20 s. Test compounds were administered 30 min (s.c.) prior to testing. […] Percent PPI was calculated for each individual subject as the relative change in the 120 dB startle response in the presence of each prepulse intensity using the formula: 100-((prepulse-pulse)/pulse)*100 as previously described ([Ralph-Williams et al., 2003]).
The experiment was analyzed using a two-way mixed model ANOVA (lme4 library in R software). The model included prepulse stimulus intensity levels, treatment (as all combinations of pre-treatment and treatment), and their interaction as fixed factors and random intercept, random slope for each animal as random factors. […] In order to adjust for multiple hypothesis testing we used false discover rate method which controls the expected proportion of false discoveries among the rejected hypotheses. For all statistical tests, p < 0.05 between groups was considered significant.

[2] = tested on: conditioned avoidance responding; test: Rat conditioned avoidance response (CAR)
Protocol: The CAR assay was performed under similar conditions previously described ([Marquis et al., 2011]) at WuXiAppTec Inc. (Delin Rd. #90, Waigaoquiao Free Trade Zone, Shanghai 200131, China). For this study, adult male Fisher-344 rats were trained and tested in a two-way active avoidance apparatus with MED-PC software (MED Associates, St. Albans, VT, USA).
Briefly, subjects were handled and acclimated to the shuttle boxes for 2 d prior to training sessions. During training sessions, subjects were trained to avoid an electric footshock by moving to the adjacent, non-stimulus side of the shuttle box upon presentation of tone + light stimuli which preceded the presentation of the footshock (0.6 mA, 10 s duration) by 10 s. For this assay an avoidance was defined as moving to the adjacent compartment during the tone+light presentation that preceded the shock, an escape was defined as moving to the adjacent compartment upon presentation of the shock, and an escape failure was defined as a lack of relocation to the adjacent compartment throughout the presentation of the shock. Subjects received 30 trials of training per day for 5 d. Subjects with ≥ 80% avoidance responses on two consecutive days with no escape failures, were considered qualified for testing, and were randomized across treatment groups (n=8–9 per treatment group). […] Avoidance responding was calculated as % of the number of total trials in which an avoidance occurred. Data were calculated for each animal and compared across treatment groups using one-way ANOVA with Dunnett’s post-test versus the vehicle + vehicle treated group.

[3] = tested on: mPFC low frequency delta activity; test: mPFC low frequency delta field potential oscillation power, anesthetized rat
Protocol: Experiments were performed on n=10 adult male Sprague-Dawley rats (275–305 g) under urethane anesthesia (1.5 g/kg, i.p.). The femoral vein was cannulated for i.v. administration of drugs. A stimulation electrode was placed in the CA1/subiculum region (coordinates: A-P = +6.3 mm, M–L = +5.2 mm, D-V = +8.0 mm) using stereotactic methods and unilateral local field potential (LFP) was recorded by a metal monopolar macroelectrode placed into the medial PFC (mPFC; coordinates: A-P = +3.0 mm, M-L = +0.6 mm, D-V = +5.0 mm). […] Evoked responses to the first and the second stimuli were identified (P1 and P2, respectively) and the amount of PPF determined by the formula: (P2 amplitude/P1 amplitude). Waveform averages used to calculate PPF consisted of 60 consecutive stimuli. Five minutes were allowed between administration of each drug dose and the starting of the subsequent average of each 10-min period after each cumulative dose (0.1–1 mg/kg, IV). Disruption in power of LFP delta activity was measured as the percentage of power in low frequency (0–1.8 Hz) irregular activity in the total (0–4 Hz) delta power range. LFP power spectra were determined during periods concurrent with waveform averages and PPF calculation. Statistical significance was determined by means of two-tailed paired Student’s t-test.

[4] = PK, brain exposure and plasma/brain tissue binding studies; settings: data not presented
Protocol: Across the set of experiments, PK was either collected from satellite animals or in separate, dedicated studies. In addition to plasma PK, exposures were obtained in brain tissue for rat and mouse, and plasma protein binding and brain tissue binding were measured. Using the measured exposures, partitioning, and binding parameters, and the
Exposures increased in a generally dose proportional manner across most of the doses used in the pharmacology studies, and inter animal variability was typically low. Exposures were obtained in brain tissues for rat and mouse, and plasma protein binding and brain tissue binding were measured.

Cc1cc(Oc2nccc3occc23)ccc1-c1c(C)ncc2nccn12 [PF-6142]
horizontal activity, five consecutive days of dosing (mouse locomotor activity; 1.78 mg/kg daily): did not significantly increase horizontal activity | horizontal activity, five consecutive days of dosing (mouse locomotor activity; 3.2 mg/kg s.c. daily (p=0.0311 day 4, p=0.0309 day 5)): only increased activity significantly on days 4 and 5 | locomotor activity, five consecutive days of dosing (mouse locomotor activity; 10 mg/kg s.c. daily, CD-1 mice): increased locomotor activity | locomotor activity (mouse locomotor activity; D1 KO mice, 10 mg/kg s.c. (p=0.6731)): did not show hyperactivity | locomotor activity (mouse locomotor activity; WT mice, 10 mg/kg s.c.): increased activity in the WT mice | horizontal activity (beam breaks, 2 h) (mouse locomotor activity; acute 0.32-10 mg/kg s.c., significant at 10 mg/kg (p<0.0001)): dose-dependently increased horizontal activity | effect on %PPI in combination with risperidone ([1]; PF-6142 1.78 mg/kg + risperidone, 3, 7, 9 dB prepulse): no effect | %PPI vs vehicle ([1]; PF-6142 1.78 mg/kg alone, significant only at 9 dB prepulse intensity (p=0.029)): modest impairments in %PPI | % PPI, PF-6142 alone (pilot experiments, Figure 4C) ([1]; adult C57BL/6J mice): modest non-significant reductions in % PPI | effect on risperidone (0.56 mg/kg)-reduced startle responses ([1]; in the presence of PF-6142): not altered | % avoidance responses ([2]; PF-6142 1.78 mg/kg s.c. + risperidone 0.1 mg/kg s.c.): 76.25% | % avoidance responses ([2]; PF-6142 1.78 mg/kg s.c. + risperidone 0.56 mg/kg s.c.): 8.125% | % avoidance responding ([2]; PF-6142 1.78 mg/kg s.c. alone, combination study (Figure 4D)): 94.38% | mean % avoidance responses ([2]; PF-6142 alone 0.32 mg/kg s.c.): 95.93% | mean % avoidance responses ([2]; PF-6142 alone 1.78 mg/kg s.c., dose-range study): 98.47% | mean % avoidance responses ([2]; PF-6142 alone 3.2 mg/kg s.c.): 95.57% | mean % avoidance responses ([2]; PF-6142 alone 5.6 mg/kg s.c.): 95.75% | MK-801-induced increases in low frequency delta ([3]; PF-6142 0.1-1 mg/kg IV cumulative): dose-dependently reversed | MK-801-induced increases in low frequency delta activity after SCH-23390 pretreatment ([3]; PF-6142 cumulative IV up to 3 mg/kg (p=0.11)): no effect | brain penetration ([4]; brain tissues of rat and mouse): fully brain penetrant | unbound concentrations between the brain and plasma compartments ([4]; rat and mouse): approaching unity
